pIC50: −log10 of the molar value. Where two headings read alike, the source gives them in different places.
Molecular target: hT2R8 (Homo sapiens (Human), UniProt Q9NYW2)
Test: hT2R8 antagonist high-throughput FLIPR assay, stable cell line with G16g44, agonist andrographolide
Assay type: cell-based
Settings: for IC50: unit uM, read-out: IC50 on hT2R08 bitter receptor
Summary of the method: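 Antagonist screen: compounds co-applied with agonist andrographolide at 200 μM, a dose giving 70–80% of maximal hT2R8 activation. Fluorescence measured by FLIPR in a stable HEK293 line expressing both hT2R8 and the promiscuous G16g44 protein.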

[1] = table after Example 10-97, read-out: hT2R8 IC50
[2] = read-out: IC50 on hT2R8 bitter receptor
[3] = table after Example 12-37, read-out: hT2R8 IC50

hT2R8, sequence (Q9NYW2 whole entry): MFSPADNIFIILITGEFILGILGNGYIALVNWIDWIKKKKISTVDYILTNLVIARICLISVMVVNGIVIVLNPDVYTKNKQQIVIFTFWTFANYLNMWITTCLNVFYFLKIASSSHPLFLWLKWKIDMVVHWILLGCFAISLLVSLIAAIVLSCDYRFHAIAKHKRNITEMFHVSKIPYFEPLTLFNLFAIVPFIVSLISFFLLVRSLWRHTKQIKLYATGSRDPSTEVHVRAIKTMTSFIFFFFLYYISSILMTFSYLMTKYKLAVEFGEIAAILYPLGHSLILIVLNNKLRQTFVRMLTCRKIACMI

Row | SMILES | pIC50 [1] | pIC50 (Table A, read-out: hT2R8 IC50) | pIC50 [2] | further results
1 | COc1ccc(CN2CC(=O)N(c3cnn(Cc4c(C)noc4C)c3)C2=O)cc1O [Example 10-13, 3-(1-((3,5-dimethylisoxazol-4-yl)methyl)-1H-pyrazol-4-yl)-1-(3-hydroxy-4-methoxybenzyl)imidazolidine-2,4-dione] | 7.06 | – | – | IC50: 0.1 µM
2 | Cc1noc(C)c1Cn1cc(NC(=O)c2ccc3occc3c2)cn1 [Example 4-77, N-(1-((3,5-dimethylisoxazol-4-yl)methyl)-1H-pyrazol-4-yl)benzofuran-5-carboxamide] | – | 5.85 | – | –
3 | Cc1noc(C)c1Cn1cc(-n2c(=O)[nH]c(=O)n(Cc3ccccc3)c2=O)cn1 [Example 9-9, 1-benzyl-3-(1-((3,5-dimethylisoxazol-4-yl)methyl)-1H-pyrazol-4-yl)-1,3,5-triazinane-2,4,6-trione] | 5.81 | – | 5.94 | –
4 | COc1ccccc1CCN1C(=O)N(c2cnn(Cc3c(C)noc3C)c2)C(=O)C1(C)C [Example 12-58, 3-(1-((3,5-dimethylisoxazol-4-yl)methyl)-1H-pyrazol-4-yl)-1-(2-methoxyphenethyl)-5,5-dimethylimidazolidine-2,4-dione] | – | – | – | pIC50 [3]: 6.62
5 | Cc1noc(C)c1Cn1cc(N2C(=O)N[C@H](Cc3ccccc3)C2=O)cn1 [Example 10-4, (R)-5-benzyl-3-(1-((3,5-dimethylisoxazol-4-yl)methyl)-1H-pyrazol-4-yl)imidazolidine-2,4-dione] | 6.95 | – | 6.96 | –
6 | Cc1noc(C)c1Cn1cc(NC(=O)c2ccccc2)cn1 [Example 4-24, N-(1-((3,5-dimethylisoxazol-4-yl)methyl)-1H-pyrazol-4-yl)benzamide] | – | 5.58 | – | –
7 | Cc1cccc(CN2CC(=O)N(c3cnn(Cc4c(C)noc4C)c3)C2=O)c1 [Example 10-26, 3-(1-((3,5-dimethylisoxazol-4-yl)methyl)-1H-pyrazol-4-yl)-1-(3-methylbenzyl)imidazolidine-2,4-dione] | 7.72 | – | – | IC50: 0.02 µM
8 | Cc1nc2cc(C(=O)Nc3cnn(Cc4c(C)noc4C)c3)ccc2[nH]1 [Example 4-79, N-(1-((3,5-dimethylisoxazol-4-yl)methyl)-1H-pyrazol-4-yl)-2-methyl-1H-benzo[d]imidazole-5-carboxamide] | – | 6.00 | – | –
9 | Cc1noc(C)c1Cn1cc(N2C(=O)N(Cc3ccc(F)c(O)c3)C(C)(C)C2=O)cn1 [Example 12-19, 3-(1-((3,5-dimethylisoxazol-4-yl)methyl)-1H-pyrazol-4-yl)-1-(4-fluoro-3-hydroxybenzyl)-5,5-dimethylimidazolidine-2,4-dione] | – | – | 8.00 | –
10 | Cc1noc(C)c1Cn1cc(NC(=S)Nc2ccccc2F)cn1 [Example 4-105, 1-(1-((3,5-dimethylisoxazol-4-yl)methyl)-1H-pyrazol-4-yl)-3-(2-fluorophenyl)thiourea] | – | 5.79 | – | –
11 | COc1cccc(CN2CC(=O)N(c3cnn(Cc4c(C)noc4C)c3)C2=O)c1 [Example 10-6, 3-(1-((3,5-dimethylisoxazol-4-yl)methyl)-1H-pyrazol-4-yl)-1-(3-methoxybenzyl)imidazolidine-2,4-dione] | 7.14 | – | 7.15 | –
12 | Cc1noc(C)c1Cn1cc(N2C(=O)N(Cc3cccc(O)c3)C3(CC3)C2=O)cn1 [Example 12-15, 6-(1-((3,5-dimethylisoxazol-4-yl)methyl)-1H-pyrazol-4-yl)-4-(3-hydroxybenzyl)-4,6-diazaspiro[2.4]heptane-5,7-dione] | – | – | 7.70 | –
13 | COc1ccc(CN2CC(=O)N(c3cnn(Cc4c(C)noc4C)c3)C2=O)cc1 [Example 10-29, 3-(1-((3,5-dimethylisoxazol-4-yl)methyl)-1H-pyrazol-4-yl)-1-(4-methoxybenzyl)imidazolidine-2,4-dione] | 5.51 | – | – | IC50: 0.07 µM
14 | COc1cccc(F)c1CN1C(=O)N(c2cnn(Cc3c(C)noc3C)c2)C(=O)C1(C)C [Example 12-65, 3-(1-((3,5-dimethylisoxazol-4-yl)methyl)-1H-pyrazol-4-yl)-1-(2-fluoro-6-methoxybenzyl)-5,5-dimethylimidazolidine-2,4-dione] | – | – | – | pIC50 [3]: 6.51
15 | Cc1cc(C(=O)Nc2cnn(Cc3c(C)noc3C)c2)c(C)o1 [Example 4-53, N-(1-((3,5-dimethylisoxazol-4-yl)methyl)-1H-pyrazol-4-yl)-2,5-dimethylfuran-3-carboxamide] | – | 5.52 | – | –
16 | Cc1noc(C)c1CN1CC(=O)N(c2cnn(Cc3c(C)noc3C)c2)C1=O [Example 10-55, 1-((3,5-dimethylisoxazol-4-yl)methyl)-3-(1-((3,5-dimethylisoxazol-4-yl)methyl)-1H-pyrazol-4-yl)imidazolidine-2,4-dione] | 6.32 | – | 7.40 | –
17 | Cc1noc(C)c1Cn1cc(N2C(=O)N(Cc3ccccc3C(=O)O)C(C)(C)C2=O)cn1 [Example 12-91, 2-((3-(1-((3,5-dimethylisoxazol-4-yl)methyl)-1H-pyrazol-4-yl)-5,5-dimethyl-2,4-dioxoimidazolidin-1-yl)methyl)benzoic acid] | – | – | – | pIC50 [3]: 5.37
18 | COc1cc(C(=O)Nc2cnn(Cc3c(C)noc3C)c2)cc2c1OCCO2 [Example 4-93, N-(1-((3,5-dimethylisoxazol-4-yl)methyl)-1H-pyrazol-4-yl)-8-methoxy-2,3-dihydrobenzo[b][1,4]dioxine-6-carboxamide] | – | – | 6.15 | –

Row | SMILES | pIC50 [1] | pIC50 (Table A, read-out: hT2R8 IC50) | pIC50 [2] | further results
19 | Cc1cc(C(=O)Nc2cnn(Cc3c(C)noc3C)c2)n(C)n1 [Example 4-52, N-(1-((3,5-dimethylisoxazol-4-yl)methyl)-1H-pyrazol-4-yl)-1,3-dimethyl-1H-pyrazole-5-carboxamide] | – | 4.74 | – | –
20 | Cc1noc(C)c1Cn1cc(N2C(=O)N(C)C(C)(C)C2=O)cn1 [Example 10-52, 3-(1-((3,5-dimethylisoxazol-4-yl)methyl)-1H-pyrazol-4-yl)-1,5,5-trimethylimidazolidine-2,4-dione] | 6.09 | – | 6.10 | –
21 | COc1ccc(C(=O)Nc2cnn(Cc3c(C)noc3C)c2)cc1OC [Example 4-21, N-(1-((3,5-dimethylisoxazol-4-yl)methyl)-1H-pyrazol-4-yl)-3,4-dimethoxybenzamide] | – | 6.25 | – | –
22 | Cc1noc(C)c1Cn1cc(N2C(=O)N(C(C)c3ccccc3)C(C)(C)C2=O)cn1 (stereo not shown) [Example 12-24, 3-(1-((3,5-dimethylisoxazol-4-yl)methyl)-1H-pyrazol-4-yl)-5,5-dimethyl-1-(1-phenylethyl)imidazolidine-2,4-dione] | – | – | 6.82 | –
23 | COc1cccc(C(=O)Nc2cnn(Cc3c(C)noc3C)c2)c1O [Example 4-71, N-(1-((3,5-dimethylisoxazol-4-yl)methyl)-1H-pyrazol-4-yl)-2-hydroxy-3-methoxybenzamide] | – | 5.54 | – | –
24 | Cc1noc(C)c1Cn1cc(NC(=O)c2ccc3c(c2)OC(F)(F)O3)cn1 [Example 4-78, N-(1-((3,5-dimethylisoxazol-4-yl)methyl)-1H-pyrazol-4-yl)-2,2-difluorobenzo[d][1,3]dioxole-5-carboxamide] | – | 5.89 | – | –
25 | Cc1ccc(CN2C(=O)N(c3cnn(Cc4c(C)noc4C)c3)C(=O)C2(C)C)c(C)c1 [Example 12-86, 1-(2,4-dimethylbenzyl)-3-(1-((3,5-dimethylisoxazol-4-yl)methyl)-1H-pyrazol-4-yl)-5,5-dimethylimidazolidine-2,4-dione] | – | – | – | pIC50 [3]: 5.72
26 | Cc1noc(C)c1Cn1cc(N2C(=O)[C@H](C)N(Cc3cccc(O)c3)C2=O)cn1 [Example 12-6, (S)-3-(1-((3,5-dimethylisoxazol-4-yl)methyl)-1H-pyrazol-4-yl)-1-(3-hydroxybenzyl)-5-methylimidazolidine-2,4-dione] | – | – | 7.70 | –
27 | COc1ccccc1NC(=S)Nc1cnn(Cc2c(C)noc2C)c1 [Example 4-106, 1-(1-((3,5-dimethylisoxazol-4-yl)methyl)-1H-pyrazol-4-yl)-3-(2-methoxyphenyl)thiourea] | – | 5.58 | – | –
28 | Cc1noc(C)c1Cn1cc(-n2c(=O)n(C)n(CCc3ccc(F)cc3)c2=O)cn1 [Example 10-66, 4-(1-((3,5-dimethylisoxazol-4-yl)methyl)-1H-pyrazol-4-yl)-1-(4-fluorophenethyl)-2-methyl-1,2,4-triazolidine-3,5-dione] | 7.92 | – | 8.00 | –
29 | Cc1noc(C)c1Cn1cc(NC(=O)/C=C/c2ccccc2)cn1 [Example 4-15, N-(1-((3,5-dimethylisoxazol-4-yl)methyl)-1H-pyrazol-4-yl)cinnamamide] | – | – | 6.15 | –
30 | COc1cc(C(=O)Nc2cnn(Cc3c(C)noc3C)c2)cc2c1OC(C)O2 (stereo not shown) [Example 4-94, N-(1-((3,5-dimethylisoxazol-4-yl)methyl)-1H-pyrazol-4-yl)-7-methoxy-2-methylbenzo[d][1,3]dioxole-5-carboxamide] | – | – | 6.15 | –
31 | CCC(C)CC(=O)Nc1cnn(Cc2c(C)noc2C)c1 (stereo not shown) [Example 4-60, N-(1-((3,5-dimethylisoxazol-4-yl)methyl)-1H-pyrazol-4-yl)-3-methylpentanamide] | – | 5.71 | – | –
32 | Cc1noc(C)c1Cn1cc(N2C(=O)N(Cc3ccc(C#N)cc3)C(C)(C)C2=O)cn1 [Example 12-79, 4-((3-(1-((3,5-dimethylisoxazol-4-yl)methyl)-1H-pyrazol-4-yl)-5,5-dimethyl-2,4-dioxoimidazolidin-1-yl)methyl)benzonitrile] | – | – | – | pIC50 [3]: 7.30
33 | COc1cccc(CC2NC(=O)N(c3cnn(Cc4c(C)noc4C)c3)C2=O)c1 (stereo not shown) [Example 10-56, 3-(1-((3,5-dimethylisoxazol-4-yl)methyl)-1H-pyrazol-4-yl)-5-(3-methoxybenzyl)imidazolidine-2,4-dione] | 6.88 | – | 6.89 | –
34 | Cc1noc(C)c1Cn1cc(N2C(=O)N(Cc3ccc4c(c3)OCCO4)C(C)(C)C2=O)cn1 [Example 12-62, 1-((2,3-dihydrobenzo[b][1,4]dioxin-6-yl)methyl)-3-(1-((3,5-dimethylisoxazol-4-yl)methyl)-1H-pyrazol-4-yl)-5,5-dimethylimidazolidine-2,4-dione] | – | – | – | pIC50 [3]: 6.57
35 | Cc1noc(C)c1Cn1cc(N2C(=O)NC(CCc3ccccc3)C2=O)cn1 (stereo not shown) [Example 10-45, 3-(1-((3,5-dimethylisoxazol-4-yl)methyl)-1H-pyrazol-4-yl)-5-phenethylimidazolidine-2,4-dione] | 6.10 | – | 6.66 | –

Reference: patent US9247759B2, “Identification of human T2R receptors that respond to bitter compounds that elicit the bitter taste in compositions, and the use thereof in assays to identify compounds that inhibit (block) bitter taste in compositions and use thereof” (SENOMYX, INC., priority 2007, dated 2016)
